Measured values published in patent US5929082A, “Potassium ion channel blockers” (priority 1995, dated 1999).

What was measured:
[1] = Hypoglycaemic activity: change in blood glucose after oral gavage; format: in vivo, Sprague Dawley rats; details: 1.6 mg/kg oral gavage, normal fed male rats
Procedure: The biological activity of representative compounds of the invention was evaluated by means of several different tests. The activity of compounds of this invention as hypoglycaemic agents was measured and compared with the activity of the known compound of Example 1, using methods described in the literature. Thus normal, fed male Sprague Dawley rats weighing between 275 and 375 g were studied for changes in blood sugar levels and alterations to mean arterial blood pressure following administration of representative compounds of the invention suspended in a 5% solution of gum acacia by oral gavage at a dose of 1.6 mg/kg. The concentration of each compound was 4 mg in 10 ml, so that each rat received 1.1-1.5 ml to obtain the desired dose on a body weight basis. The blood sugar levels were recorded for each rat immediately prior to administration, and at 1, 2, and 3 hr following administration of the test compounds. Blood glucose levels were determined on blood samples taken from the tail, and analysed on an Ames blood glucometer, model 5626, and Ames, 2627 blood glucose strips (number 2). […] It is apparent that generally the heterocyclic sulphonylthioureas have greater activity than the sulphonylureas. Without wishing to be bound by any proposed mechanism for the observed effect, we believe that this may be associated with differences in lipid permeability.

[2] = test system: MCF-7 mammary carcinoma cells; assay: Thymidine uptake ([methyl-3H] thymidine incorporation into DNA); format: cell-based, human; details: 100 μM (printed 100 μH / 100 mM), compared to control group; Glibenclamide n=3, Compound 1-24 n=4
Procedure: Incorporation of [methyl-3H] thymidine into DNA was measured as described by Murphy and Lazarus (1983), using MCF-7 mammary carcinoma cells treated with compound 1-24 (100 μH) and a control group. The growth medium from cells cultured as described in Example 24 was aspirated from the wells, and 1 mL of fresh growth medium containing 1 μCi [3H]-thymidine (Amersham) was added to each well After 4 hours incubation, the medium was aspirated and the monolayers were washed three times with ice cold phosphate buffered saline (ICN). This was followed by three washes with 10% (v/v) ice cold trichloroacetic acid, each of 5 minutes duration. After another three washes with absolute ethanol at room temperature of 5 minutes duration, the monolayer was dried at room temperature for 10 minutes. The monolayer was […] after incubation for 12 hours with 0.5 N NaOH and 1% Triton-X 100 (Sigma). An aliquot of the cell lysate was added to 10 ml of Ultima Gold (Packard) and counted using a liquid scintillation counter (Packard model 19006A).

[3] = test system: MCF-7 human mammary carcinoma cells; details: concentration-dependent; Woodfork et al, 1995; read-out: IC50, inhibition of cell proliferation; cited from earlier work
[4] = test system: MCF-7 human mammary carcinoma cells; details: Woodfork et al, 1995, cited from earlier work
rat heart = details: 1 μM, rat heart stimulated at 5 Hz; Kantor et al, 1987; cited from earlier work
[5] = Kinetic/metabolite studies: HPLC analysis of plasma after oral administration; format: in vivo, Sprague-Dawley rats; details: after oral administration, HPLC
Procedure: Plasma samples were collected in order to test the correlation of plasma drug (or metabolite) concentration with hypoglycaemic activity, and to determine whether compounds of the invention were converted in vivo into active metabolites. The plasma levels of test compounds or metabolites also give an indication of rate of metabolism and kinetics of drug action.
Blood samples collected from rats treated as above and collected at the same intervals were analysed using an ICI LC1150 HPLC system and a LC1210 UV detector at a wavelength of 227 nm. The HPLC system used a Merck LiChroCART 125-4 LiChrosphere 100 RP-18 HPLC and LiChrosphere 100 RP-18 guard columns. The mobile phase consisted of 70% acetonitrile and a 30% aqueous sodium phosphate buffer at pH 7.45 and was prepared using standard HPLC grade reagents and distilled water. To improve the resolution of peaks and separation of the compounds a gradient method was established where changes in the concentration of the required buffers and solvents, and the time at which these changes occur is outlined in Table 7. The volumes are expressed as percentages of the total flow rate, with the flow rate remaining constant at […].
The data were acquired using the WinChrom Data Management system and were calibrated using stock solutions of the test compounds and Glibenclamide as an internal standard dissolved in 100% methanol
Plasma (250 μL) collected from the rats were extracted into methanol (700 μL) and 50 μL of Glibenclamide (25 μg/ml). The mixture was then agitated with a vortex mixer for 15 sec and centrifuged for 10 min. The clear supernatant was then carefully aspirated for HPLC analysis.
The results are outlined in Table 8 and show retention times (minutes) for the compounds and their metabolites as analysed by HPLC after oral administration in Sprague-Dawley rats. […] Glibenclamide is shown for comparison only, none of the metabolites observed with the test compounds correspond to metabolites of Glibenclamide.

[6] = parameters: species or system Sprague-Dawley rats; details: rat, in vivo, po
Procedure: Representative compounds were evaluated for their effect on glucose tolerance following oral administration at doses ranging from 0.005 mg/kg to 100 mg/kg. Normal male Sprague-Dawley rats were dosed with a test compound daily for five days, and were fasted overnight prior to days 1 and 5. Control animals were given ether vehicle only, or Glibenclamide (glyburide; N-[4-(β-)(2-methoxy-5-chlorobenzamido)ethyl)benzosulphonyl)-N'-cyclohexylurea]; 2 mg/kg/day). Blood was collected on day zero and on days one and five at 0, 0.5, 1, 1.5 and 2 hours after drug administration. Blood glucose concentrations were then measured in duplicate using standard glucose oxidase analysis. The samples were assayed using a Hitachi U-200 Spectrophotometer at a wavelength of 505 nm. The weight gain of each rat was also measured over the five day period, and all results were compared to both the negative control group (dosing with vehicle only) and the positive control group (dosing with Glibenclamide). […] Doses of drugs administered were minimised so as to reduce differences in weight gain whilst retaining hypoglycaemic activity. […]
Each point represents the effect of each dose on the rats glucose tolerance or ability to gain weight, expressed as a percentage of the control (normal) response (where control=100% response). […]

COc1ccc(Cl)cc1C(=O)NCCc1ccc(S(=O)(=O)NC(=O)NC2CCCCC2)cc1 [Glibenclamide, reference compound]
Change in Blood Glucose, 0 hours ([1]; 0 hours): 0.0 mmol/L | Change in Blood Glucose, 1 Hour ([1]; 1 hour): 0.6 mmol/L | Change in Blood Glucose, 2 Hours ([1]; 2 hours): -2.1 mmol/L | Change in Blood Glucose, 3 Hours ([1]; 3 hours): -2.4 mmol/L | inhibition of thymidine uptake [2]: significant inhibition | IC50 [3]: 50 µM | accumulation at the G0/G1 phase in cell cycle distribution [4]: statistically significant accumulation at the G0/G1 phase | cell-cycle arrest ([4]; inhibition of KATP channels): reversible cell-cycle arrest | effect on ischaemia-induced ventricular arrhythmias / K+ loss (rat heart): prevent or reduce ischaemia-induced ventricular arrhythmias | Compound in plasma [5]: no | weight gain over a five day period [6]: decreased their observed weight gain
